Results published in US20230234920A1, “Azirine Containing Compounds as Anti-Angiogenesis Agents and a Process for the Preparation Thereof” (COUNCIL OF SCIENTIFIC & INDUSTRIAL RESEARCH, priority 2020, published 2023).

Experiments:
Endothelin-1 receptor = assay: Endothelin-1 induced contraction of isolated artery rings; design: species or system mice; details: for % contraction of aortic ring: ET-1 at 100 nM
Source text: FIG. 15 represents effect of Compound 1 on endothelin-1 concentration-response curves. (A) Concentration-response curve of endothelin-1 in isolated carotid arteries of vehicle-treated (Control) and Compound 1 treated mice. (B) Concentration-response curve of endothelin-1 in isolated carotid arteries of vehicle-treated (Control) and compound 3 along with compound 8 treated mice.
To test for the selectivity of the putative Endothelin-1 receptor, we applied endothelin-1 or Compound 1 in a concentration dependent manner to the […] to observe its contraction inhibition activity (FIG. 15).

chick CAM = assay: CAM (chick chorio-allantoic membrane) assay; type: in vivo; details: 500 nM and 250 nM
Procedure: (A) Chick CAM assays were used to observe the effect of Compound 1 on angiogenesis in vivo. 1 mm^2 window was made in 8 days old chicken eggs to expose the CAM, and a gelatin disc ([…]) treated with vehicle (0.1% DMSO), sunitinib and Compound 1 at a indicated concentrations were placed on the CAM surface. Post 4 days of incubation, the discs and associated CAM were photographed and excised out, for hemoglobin estimation by drapkin's reagent. (B) Blood vessel density was calculated and Hb. concentration was measured and representative graph was plotted for the control and treatment group and data are represented as mean±SEM with significant difference from control at *p<0.05, **p<0.01 and ***p<0.001.
The eggs were incubated horizontally for 3 days at 37° C. in a 60% humidified atmosphere, using a hybridization incubator (combi-SV 12) with one hour scheduled rotation. Post 3 days of incubation, 2-3 mL of albumin was aspirated from the acute pole of the egg to create false air sac directly over the CAM. Post fertilization (Day 8), a fine blade was used to make an approximate 0.5 cc square incision on the eggshell under sterile conditions and the eggshell window fragment was removed to access the CAM beneath. A piece of gelatin sponge embedded in Compound 1 (500 nM and 250 nM) and sunitinib (2 μM) individually were placed on the CAM of the chicken embryo and incubated for 12 days. Sterile parafilm tape was used to seal back the window and the eggs were further incubated without the rotation setting. After 12 days of incubation the CAM integration was assessed by visual inspection and photographed with a digital camera (Canon EOS); the CAM membrane along with gelatin sponge were harvested and its hemoglobin (Hb.) estimation was done by Drabkin's method according to the manufacturer's protocol (Sigma, St. Louis, Mo.). Absorbance was measured at 540 nm and hemoglobin concentration was calculated.

ECs = assay: Post tubule formation assay (disruption of preformed tubules); type: cell-based, human; details: treatment of already formed tubule
Procedure: FIG. 3 represents effect of Compound 1 on post tubule formation by ECs. (A) ECs were incubated with indicated different concentrations of compound 1 along with VEGF (50 ng/mL) and sunitinib (50 nM) after 6 h of treatment to the already formed tubule. Post treatment photographs were taken at using an inverted microscope at 10×magnification.

HUVECs protein lysate = assay: Drug Affinity Receptor Target (DART) analysis; type: binding, human; details: 10 mM
Procedure: HUVECs with confluency of 80-85% in 100 mm dish were trypsinised and the media was removed and washed twice with 1×PBS. These cells were lysed with lysis buffer at 4° C. Control and treatment group with […] of protein were incubated with vehicle and Compound 1 at a concentration of 10 mM for 15-30 mins at RT with gentle shaking. Then different proteases like thermolysin (10 μg/15 μL) and pronase at […] were added to both the control and treatment groups for 5-10 mins at RT. Digestion was stopped by adding protease inhibitor (20×) at specific interval and allowed to incubate at 4° C. for 10 mins. 6×SDS-PAGE loading dye was added to all the respective samples and heated at 70° C. for 10 mins. SDS-PAGE was performed for the given control and treatment group samples and then the gel was stained with 0.05% Coomassie Brilliant Blue (CBB-R250). After destaining the gel, bands of different molecular weight of treatment and control groups were excised off from the gel and further employed for the protein sequence analysis through LC/MS-MS (Liquid chromatography/Mass spectroscopy).

[1] = Intramuscular pharmacokinetic study of bulk compound 1 and chiral isomers; type: in vivo, male Sprague Dawley (SD) rats; details: IM 20 mg/kg
Procedure: In vivo pharmacokinetic study was performed in male Sprague Dawley (SD) rats (n=4). Intramuscular (IM) formulation of bulk of compound 1 as well as chiral isomer-1 and chiral isomer-2 was prepared by dissolving accurately weighed quantity of compound 1 (20 mg) in 1 mL of olive oil followed by vortexing for 2 min and sterilize through syringe filter. Blood samples were collected from the retro orbital plexus of rats under light ether anesthesia into microfuge tubes containing heparin as an anti-coagulant at 0.25, 0.5, 1, 3, 5, 7, 9, 24, 30, 48 and 72 hours post-dosing after intramuscular dose. Plasma sample was harvested by centrifuging the blood at 13000 rpm for 10 min on Sigma 1-15 K (Frankfurt, Germany) and stored frozen at −70±10° C. until bioanalysis. Each plasma sample (100 μl) was processed using protein precipitation method using 200 μl acetonitrile containing medicarpine as internal standard (I.S.) as protein precipitant, and 10 μl of the supernatant was injected for LC-MS/MS.

[2] = system: MDA-MB 468 triple negative breast cancer; assay: MDA-MB 468 xenograft mouse model; type: in vivo, nude mice
Source text: FIG. 13 represents Effect of Compound 1 on triple negative breast cancer celline MDA-MB 468 in xenograft mouse model.
A nude mice model bearing orthotopic HCT116 colon tumor or MDA-MB 468 was used to evaluate the anti-tumor angiogenesis effect of Compound 1 in vivo (FIG. 12). […] To investigate the effects of Compound 1 on angiogenesis and molecular targets in vivo, we examined the expression level of endothelial-specific marker (CD31) in tumor samples.

[3] = male, Sprague-Dawley, rat, plasma, mean ± S.D., n = 4

## CCOC(=O)C1N=C1CCc1ccc(OC)cc1 (racemic) [Compound 1, Ethyl 3-(4-methoxyphenethyl)-2H-azirine-2-carboxylate]
Endothelin-1 receptor
  concentration initiating inhibition of ET-1 mediated contraction: 3 nM
Endothelin-1 receptor; 10 nM
  % contraction of aortic ring: about 35%
Endothelin-1 receptor; 30 nM
  % contraction of aortic ring: ~25%
Endothelin-1 receptor; 50 nM
  % contraction of aortic ring: about 20%
Chick CAM
  blood vessels density: suppressed blood vessels density
  hemoglobin content: 50 to 60 µg/mL
ECs
  disruption of preformed tubules: could not be able to disrupt the preformed tubules
HUVECs protein lysate
  protection of protein band against protease digestion: Intact protein band was observed
[1]; mean ± S.D., n = 4
  Cl: 3.4 ± 0.327 mL/min/kg
  Vd: 4.017 ± 0.868 L/kg
[1]; male, Sprague-Dawley, rat, plasma, intramuscular, 0.25 h
  concentration at 0.25 h: 2910 ± 950 ng/mL
[1]; male, Sprague-Dawley, rat, plasma, intramuscular, 0.5 h
  concentration at 0.5 h: 4440 ± 460 ng/mL
[1]; male, Sprague-Dawley, rat, plasma, intramuscular, 1 h
  concentration at 1 h: 3930 ± 1200 ng/mL
[1]; male, Sprague-Dawley, rat, plasma, intramuscular, 3 h
  concentration at 3 h: 3240 ± 240 ng/mL
[1]; male, Sprague-Dawley, rat, plasma, intramuscular, 5 h
  concentration at 5 h: 2830 ± 320 ng/mL
[1]; male, Sprague-Dawley, rat, plasma, intramuscular, 7 h
  concentration at 7 h: 2390 ± 530 ng/mL
[1]; male, Sprague-Dawley, rat, plasma, intramuscular, 9 h
  concentration at 9 h: 3210 ± 810 ng/mL
[1]; male, Sprague-Dawley, rat, plasma, intramuscular, 24 h
  concentration at 24 h: 1740 ± 240 ng/mL
[1]; male, Sprague-Dawley, rat, plasma, intramuscular, 30 h
  concentration at 30 h: 1660 ± 230 ng/mL
[1]; male, Sprague-Dawley, rat, plasma, intramuscular, 48 h
  concentration at 48 h: 262 ± 120 ng/mL
[1]; male, Sprague-Dawley, rat, plasma, intramuscular, 72 h
  concentration at 72 h: 107 ± 10 ng/mL
[1]; [3]
  AUC(0-inf): 98600 ± 9400 ng·h/mL
  half-life: 13.5 ± 1.7 h
[1]; male, Sprague-Dawley, rat, plasma, mean ± S.D., n = 4, read-out: AUC0-72
  AUC(0-t): 96400 ± 9850 ng·h/mL
[1]; male, Sprague-Dawley, rat, plasma, mean ± S.D., n = 4, read-out: Cmax
  Cmax: 4620 ± 435 ng/mL
[1]; male, Sprague-Dawley, rat, plasma, mean ± S.D., n = 4, read-out: MRT
  MRT: 18 ± 1.57 h
[1]; male, Sprague-Dawley, rat, plasma, mean ± S.D., n = 4, read-out: Tmax
  Tmax: 0.667 ± 0.288 h
[2]; 25 mg/kg
  tumor growth: regresses tumor growth similar to that of sunitinib
[2]; 40 mg/kg
  tumor growth: regresses tumor growth better than the standard compound sunitinib
